Assay results reported in patent publication US8951563B2, “Antibiotic drug delivery and potentiation” (Technion Research & Development Foundation Limited, priority 2009, dated 2015).

How the values were obtained:
Format in all cases: cell-based
E. coli U-16327 = test: Antibiotic MIC / chemo-sensitization checkerboard with OAK, E. coli U-16327; conditions: for MIC: Escherichia coli, U16327, OAK: None
Description: (§1) Bacteria were grown overnight in LB growth medium and diluted 10,000-fold in same medium.
(§2) Inhibition of proliferation was determined by optical density measurements (620 nm) after incubation overnight at 37° C.
(§3) Synergistic effect of the combinations was assessed by determination of the fractional inhibitory concentration (FIC) where FIC=(MIC OAK in combination with antibiotic)/(MIC OAK alone)+(MIC antibiotic in combination)/(MIC antibiotic alone). Synergy was determined for FIC 0.5.

[1] = test system: E. coli N281, ribosomal mutation; test: FIC index with sub-MIC OAK, E. coli N281; conditions: sub-MIC C12K-7α8
Description: as §1, §3

[2] = test system: E. coli AB301, wild type (efflux+); test: FIC index with sub-MIC OAK, E. coli AB301; conditions: sub-MIC C12K-7α8
Description: as §1, §3

[3] = test system: E. coli AG100A, ΔacrAB (efflux−); conditions: sub-MIC C12K-7α8
Description: as §1, §3

E. coli U-16329 = test: Antibiotic MIC / chemo-sensitization checkerboard with OAK, E. coli U-16329; conditions: for MIC: Escherichia coli, U16329, OAK: None
Description: as §1, §2, §3

E. coli 14182 = test: Antibiotic MIC / chemo-sensitization checkerboard with OAK, E. coli 14182
Description: as §1, §2, §3

E. coli 14384 = test: Antibiotic MIC / chemo-sensitization checkerboard with OAK, E. coli 14384
Description: as §1, §2, §3

[4] = test system: E. coli AG100, wild type (efflux+); conditions: sub-MIC C12K-7α8
Description: as §1, §3

[5] = antibiotic combined with C12K-7α8

| SMILES | MIC (E. coli U-16327) | FIC [1] | FIC [2] | FIC [3] | MIC (E. coli U-16329) | Antibiotic MIC in presence of OAK (E. coli U-16327; +3.5 μg/ml C12K-7α8 (½ MIC)) | Antibiotic MIC in presence of OAK (E. coli U-16327; +[…] C12K-7α8 (⅓ MIC)) | Antibiotic MIC in presence of OAK (E. coli 14182; +1.7 μg/ml C12K-7α8 (¼ MIC)) | Antibiotic MIC in presence of OAK (E. coli 14182; +3.5 μg/ml C12K-7α8 (½ MIC)) | Antibiotic MIC in presence of OAK (E. coli 14182; +[…] C12K-7α8 (⅓ MIC)) | Antibiotic MIC in presence of OAK (E. coli 14384; +1.7 μg/ml C12K-7α8 (¼ MIC)) | Antibiotic MIC in presence of OAK (E. coli 14384; +3.5 μg/ml C12K-7α8 (½ MIC)) | Antibiotic MIC in presence of OAK (E. coli 14384; +[…] C12K-7α8 (⅓ MIC)) | FIC [4] | Antibiotic MIC in presence of OAK (E. coli U-16329; +3.5 μg/ml C12K-7α8 (½ MIC)) | Antibiotic MIC in presence of OAK (E. coli U-16329; +[…] C12K-7α8 (⅓ MIC)) | further results |
| --- | --- | --- | --- | --- | --- | --- | --- | --- | --- | --- | --- | --- | --- | --- | --- | --- | --- |
| CC[C@H]1OC(=O)[C@H](C)[C@@H](O[C@H]2C[C@@](C)(OC)[C@@H](O)[C@H](C)O2)[C@H](C)[C@@H](O[C@@H]2O[C@H](C)C[C@H](N(C)C)[C@H]2O)[C@](C)(OC)C[C@@H](C)C(=O)[C@H](C)[C@@H](O)[C@]1(C)O [Clarithromycin, clarithromycin] | 128 µg/mL | 1.0 | 0.56 | 0.75 | 128 µg/mL |  |  |  |  |  |  |  |  |  |  |  |  |
| CC[C@H]1OC(=O)[C@H](C)[C@@H](O[C@H]2C[C@@](C)(OC)[C@@H](O)[C@H](C)O2)[C@H](C)[C@@H](O[C@@H]2O[C@H](C)C[C@H](N(C)C)[C@H]2O)[C@](C)(O)C[C@@H](C)C(=O)[C@H](C)[C@@H](O)[C@]1(C)O [Erythromycin, erythromycin] | 512 µg/mL | 1.0 | 0.56 | 0.86 | 256 µg/mL | 16 µg/mL | 64 µg/mL | 32 µg/mL | 4 µg/mL | 16 µg/mL | 64 µg/mL | 8 µg/mL | 16 µg/mL | 0.46 | 16 µg/mL | 64 µg/mL | FIC (E. coli U-16327; [5]): 0.46; FIC (E. coli 14182; [5]): 0.46; FIC (E. coli 14384; [5]): 0.39; FIC (E. coli U-16329; [5]): 0.56 |
| Cc1onc(-c2ccccc2)c1C(=O)N[C@@H]1C(=O)N2[C@@H]1SC(C)(C)[C@@H]2C(=O)O [Oxacillin, oxacillin] | > 512 µg/mL |  |  | 0.75 | > 512 µg/mL | 512 µg/mL | >512 µg/mL | >512 µg/mL | >512 µg/mL | >512 µg/mL | >512 µg/mL | >512 µg/mL | >512 µg/mL | 0.5 | 512 µg/mL | >512 µg/mL | Antibiotic MIC in presence of OAK (E. coli U-16327; +1.7 μg/ml C12K-7α8 (¼ MIC)): >512 µg/mL; MIC (E. coli 14182; Escherichia coli, OAK: None): > 512 µg/mL; MIC (E. coli 14384; Escherichia coli, OAK: None): > 512 µg/mL; Antibiotic MIC in presence of OAK (E. coli U-16329; +1.7 μg/ml C12K-7α8 (¼ MIC)): >512 µg/mL |
